Structures can show the parent of a compound that is named as a salt.
How the values were obtained:
KDR kinase domain = target: T1, KDR kinase domain (Homo sapiens, UniProt P35968); assay: KDR Assay (kinase ELISA, poly(Glu4;Tyr1) phosphorylation); format: biochemical; settings: 3.3 μM ATP, 60 minutes room temperature
T1 construct: The cytosolic kinase domain of KDR kinase was expressed as a 6 His fusion protein in Sf9 insect cells; 6 His; made in house; host or cells: Sf9 insect cells
Description: The cytosolic kinase domain of KDR kinase was expressed as a 6 His fusion protein in Sf9 insect cells. The KDR kinase domain fusion protein was purified over a Ni++chelating column. Ninety-six well ELISA plates were coated with 5 μg poly(Glu4;Tyr1) (Sigma Chemical Co., St Louis, Mo.) in 100 μl HEPES buffer (20 mM HEPES, pH 7.5, 150 mM NaCl, 0.02% Thimerosal) at 4° overnight. Before use, the plate was washed with HEPES, NaCl buffer and the plates were blocked with 1% BSA, 0.1% Tween 20 in HEPES, NaCl buffer.
Test compounds were serially diluted in 100% DMSO from 4 mM to 0.12 μM in half-log dilutions. These dilutions were further diluted twenty fold in H2O to obtain compound solutions in 5% DMSO. […]
The assay was incubated with test compound or vehicle alone with gentle agitation at room temperature for 60 minutes. […] PY/anti-PY complexes were detected with an anti-mouse IgG/HRP conjugate (Amershamn International plc, Buckinghamshire, England). Phosphotyrosine was quantitated by incubating with 100 μl 3, 3′, 5, 5′ tetramethylbenzidine solution (Kirkegaard and Perry, TMB Microwell 1 Component peroxidase substrate). […]
Optical densities were determined spectrophotometrically at 450 nm in a 96-well plate reader, SpectraMax 250 (Molecular Devices). Background (no ATP in assay) OD values were subtracted from all ODs and the percent inhibition was calculated according to the equation: [formula] […]

[1] = target: T2, full length KDR receptor in NIH3T3 cells (Homo sapiens, UniProt P35968); assay: Cell mechanistic assay - Inhibition of 3T3 KDR phosphorylation; format: cell-based; settings: NIH3T3 cells expressing KDR, VEGF (30 ng/ml) stimulation, receptor phosphotyrosine ELISA
T2 construct: NIH3T3 cells expressing the full length KDR receptor were grown in DMEM; expressed in transfected cells; host or cells: NIH3T3 cells (G418 selection)
Description: Cell mechanistic assay-Inhibition of 3T3 KDR phosphorylation:
NIH3T3 cells expressing the full length KDR receptor were grown in DMEM (Life Technologies, Inc., Grand Island, N.Y.) supplemented with 10% newborn calf serum, low glucose, 25 mM/L sodium pyruvate, pyridoxine hydrochloride and 0.2 mg/ml of G418 (Life Technologies Inc., Grand Island, N.Y.). The cells were maintained in collagen I-coated T75 flasks (Becton Dickinson Labware, Bedford, Mass.) in a humidified 5% CO2 atmosphere at 37° C.
Fifteen thousand cells were plated into each well of a collagen I-coated 96-well plate in the DMEM growth medium. Six hours later, the cells were washed and the medium was replaced with DMEM without serum. […]
To assess receptor phosphorylation, 100 microliters of each cell lysate was added to the wells of an ELISA plate precoated with 300 ng of antibody C20 (Santa Cruz Biotechnology, Inc., Santa Cruz, Calif.). […] Wells were washed and phosphotyrosine was quantitated by addtion of 100 μl per well of 3,3′,5,5′ tetramethylbenzidine (Kirkegaard and Perry, TMB Microwell 1 Component peroxidase substrate) solution. […]
Optical densities (OD) were determined spectrophotometrically at 450 nm in a 96-well plate reader (SpectraMax 250, Molecular Devices). Background (no VEGF added) OD values were subtracted from all ODs and percent inhibition was calculated according to the equation: [formula] […]

T2 sequence (P35968 20-1356): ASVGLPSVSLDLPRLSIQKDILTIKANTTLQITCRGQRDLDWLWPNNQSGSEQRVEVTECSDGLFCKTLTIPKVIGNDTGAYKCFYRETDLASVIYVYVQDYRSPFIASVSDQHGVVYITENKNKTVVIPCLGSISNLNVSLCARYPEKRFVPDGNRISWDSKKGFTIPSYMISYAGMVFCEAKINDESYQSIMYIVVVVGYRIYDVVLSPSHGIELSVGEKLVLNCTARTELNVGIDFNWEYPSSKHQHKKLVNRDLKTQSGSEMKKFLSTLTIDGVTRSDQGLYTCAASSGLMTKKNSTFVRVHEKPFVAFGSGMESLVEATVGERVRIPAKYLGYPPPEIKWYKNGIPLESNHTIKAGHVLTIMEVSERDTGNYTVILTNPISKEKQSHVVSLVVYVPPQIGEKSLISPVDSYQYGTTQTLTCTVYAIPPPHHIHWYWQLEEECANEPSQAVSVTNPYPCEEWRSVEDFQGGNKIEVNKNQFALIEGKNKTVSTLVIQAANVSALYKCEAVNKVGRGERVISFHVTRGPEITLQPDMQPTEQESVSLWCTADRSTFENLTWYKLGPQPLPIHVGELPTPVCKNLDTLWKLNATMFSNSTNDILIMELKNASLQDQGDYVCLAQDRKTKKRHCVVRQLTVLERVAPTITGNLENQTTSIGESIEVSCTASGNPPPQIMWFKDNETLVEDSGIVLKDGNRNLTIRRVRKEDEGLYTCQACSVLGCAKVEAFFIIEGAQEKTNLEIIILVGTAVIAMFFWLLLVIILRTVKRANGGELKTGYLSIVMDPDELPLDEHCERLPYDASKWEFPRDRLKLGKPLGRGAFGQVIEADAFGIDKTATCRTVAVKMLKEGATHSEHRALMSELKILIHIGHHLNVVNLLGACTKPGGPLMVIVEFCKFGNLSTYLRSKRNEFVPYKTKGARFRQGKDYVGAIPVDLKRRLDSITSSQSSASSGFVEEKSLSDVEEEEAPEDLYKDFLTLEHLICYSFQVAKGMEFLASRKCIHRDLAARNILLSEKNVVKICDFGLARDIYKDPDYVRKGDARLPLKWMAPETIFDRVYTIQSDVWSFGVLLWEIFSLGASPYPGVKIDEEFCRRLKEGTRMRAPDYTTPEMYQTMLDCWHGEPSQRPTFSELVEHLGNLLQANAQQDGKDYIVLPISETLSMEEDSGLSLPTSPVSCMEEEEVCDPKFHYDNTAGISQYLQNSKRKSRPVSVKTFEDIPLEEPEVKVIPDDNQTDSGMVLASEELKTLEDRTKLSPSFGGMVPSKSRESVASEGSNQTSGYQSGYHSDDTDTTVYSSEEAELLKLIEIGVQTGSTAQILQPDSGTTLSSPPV
T1 sequence (P35968 834-1162 limits assumed): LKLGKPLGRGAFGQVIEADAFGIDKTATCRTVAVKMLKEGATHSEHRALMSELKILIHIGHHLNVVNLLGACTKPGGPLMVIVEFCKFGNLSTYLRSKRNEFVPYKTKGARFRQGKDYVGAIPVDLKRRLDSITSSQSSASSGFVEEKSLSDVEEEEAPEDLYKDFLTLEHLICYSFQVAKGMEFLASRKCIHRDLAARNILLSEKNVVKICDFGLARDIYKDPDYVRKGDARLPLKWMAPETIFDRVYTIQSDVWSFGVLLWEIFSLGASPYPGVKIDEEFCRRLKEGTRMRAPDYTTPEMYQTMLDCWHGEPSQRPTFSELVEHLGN

Structure (SMILES) | melting point | IC50 (KDR kinase domain) [nM] | IC50 [1] [nM]
NC(=O)c1cc(COc2nnc(Nc3ccc(Cl)cc3)c3ccccc23)ccn1 (as salt: hydrochloride) [Example 15, 4-[4-(4-Chlorophenylamino)phthalazin-1-yloxymethyl]pyridin-2-yl carboxylic acid amide dihydrochloride] | 143 to 145.2 °C | – | –
NC(=O)c1cc(COc2nnc(Nc3ccc(Cl)cc3)c3ccccc23)ccn1 (as salt: methanesulfonate) [Example 16, 4-[4-(4-Chlorophenylamino)phthalazin-1-yloxymethyl]pyridin-2-yl carboxylic acid amide dimethanesulfonate] | 75 to 80 °C | – | –
N#CC(c1ccncc1)c1nnc(Nc2ccc3c(c2)CCC3)c2ccccc12 (stereo not shown) [Example 22, 1-(indan-5-ylamino)-4-(4-pyridylcyanomethyl)phthalazine] | 122 to 123 °C | – | –
Clc1ccc(Nc2ccc(OCc3ccncc3)nn2)cc1 [Example 21] | – | > 1000 | > 50
c1ccc2c(Nc3ccc4ncsc4c3)nnc(Cc3ccncc3)c2c1 [Example 23] | 163 to 164 °C | – | –
CNC(=O)c1cc(Cc2nnc(Nc3ccc(Cl)cc3)c3ccccc23)ccn1 (as salt: hydrochloride) [Example 11, 4-[4-(4-Chlorophenylamino)phthalazin-1-ylmethyl]pyridin-2-yl carboxylic acid methylamide dihydrochloride] | 255 °C (dec.) | – | –

Second part, led by results:

melting point | Structure (SMILES) | IC50 (KDR kinase domain) [nM] | IC50 [1] [nM]
180 to 198 °C | Cl.Cl.NC(=O)c1cc(Cc2nnc(Nc3ccc(Cl)cc3)c3ccccc23)ccn1 [Example 13, 4-[4-(4-Chlorophenylamino)phthalazin-1-ylmethyl]pyridin-2-yl carboxylic acid amide dihydrochloride] | – | –
156 to 161 °C | NC(=O)c1cc(Cc2nnc(Nc3ccc(Cl)cc3)c3ccccc23)ccn1 (as salt: methanesulfonate) [Example 14, 4-[4-(4-Chlorophenylamino)phthalazin-1-ylmethyl]pyridin-2-yl carboxylic acid amide dimethanesulfonate] | – | –
245 to 249 °C | CNC(=O)c1cc(Cc2nnc(Nc3ccc(Cl)cc3)c3ccccc23)ccn1 (as salt: methanesulfonate) [Example 12, 4-[4-(4-Chlorophenylamino)phthalazin-1-ylmethyl]pyridin-2-yl carboxylic acid methylamide dimethanesulfonate] | – | –

Source: patent US6903101B1, “Substituted pyridazines and fused pyridazines with angiogenesis inhibiting activity” (Bayer Pharmaceuticals Corporation, priority 2000, dated 2005)
